Test results as given in US7531500B2, “Preventing airway mucus production by administration of EGF-R antagonists” (The Regents of the University of California, priority 1998, dated 2009).

Assays:
[1] = test system: pathogen-free rats; assay: Goblet cell production in pathogen-free rats after tracheal instillation of TNFα and EGF-R ligands; format: in vivo, rat
Protocol: Healthy rats. Rats were anesthetized with methohexital sodium (Brevital sodium, 50 mg/kg, i.p.; Eli Lilly & Co., Indianapolis, Ind.) and allowed to breathe spontaneously. […] In each study, sterile PBS (100 μl) was instilled into the trachea as control. […] Rats were pretreated with BIBX1522 (3, 10 or 30 mg/kg, i.p.), 1 h before and 24 h after instillation of TGFα. The trachea and lungs were removed for examination 48 h after the instillation of TGFα.
Tissue preparation. At preselected times during anesthesia, the systemic circulation was perfused with 1% paraformaldehyde in DEPC-treated PBS at a pressure of 120 mmHg. The trachea was then removed and placed in 4% paraformaldehyde for 24 h. After fixation, trachea and lungs were embedded in either JB-4 plus monomer solution A for cell analysis or O.C.T. compound (Sakura Finetek U.S.A., Inc., Torrance, Calif.) for immunohistochemistry and in situ hybridization. The embedded tissues were cut as cross sections ([…] thick) and placed on slides.
Cell analysis. We counted the total number of epithelial cells by counting epithelial cell nuclei over 2 mm of the basal lamina with an oil immersion objective lens (×1000 magnification). The linear length of the basal lamina under each analyzed region of epithelium was determined by tracing the contour of the digitized image of the basal lamina. After instillation of stimuli, “developing” goblet cells form. These cells have Alcian blue/PAS-positive granules, but the size of granules is small, and the number of cytoplasmic granules is few. We call these “developing” goblet cells “pre-goblet cells”, a stage before cells become mature goblet cells. Goblet cells are tall, cuboidal, goblet to low columnar in shape, with abundant Alcian blue/PAS-stained granules filling most of the cytoplasm between the nucleus and the luminal surface. Pre-goblet cells are defined as cells with smaller mucus-stained areas (<1/3 height in epithelium from basement membrane to luminal surface) or with sparsely and lightly Alcian blue/PAS-stained, small granules. Ciliated cells are recognized by their ciliated borders, lightly stained cytoplasm, and large round nuclei. Non-granulated secretory cells are columnar in shape and extend from the lumen to the basal lamina. The cytoplasm stains light pink color, and a few tiny PAS-positive and Alcian blue-negative granules are observed in the cytoplasm. Basal cells are small flattened cells with a large nucleus, located just above the basal lamina but not reaching the airway lumen.
Quantification of goblet cell production. Goblet cell production, was determined by the volume density of Alcian blue/PAS-stained mucosubstances on the mucosal surface epithelium using a semi-automatic imaging system described elsewhere (Weber et al. (1984) Science 224:294-297). We measured the Alcian blue/PAS-positive stained area and the total epithelial area and expressed the data as the percentage of the total area stained by Alcian blue-PAS. The analysis was performed with the public domain NIH Image program (developed at the U.S. National Institute of Health and available from the Internet by anonymous FTP from zippy.nimh.gov or on floppy disk from the National Technical Information Service, Springfield, Va., part number PB95-500195GEI).
Immunohistochemical localization of EGF-R in rat epithelium. The localization of EGF-R was examined using immunchistochemical staining with an antibody to EGF-R (Calbiochem, San Diego, Calif.) in frozen sections of rat trachea. After perfusion with 1% paraformaldehyde in PBS, tissues were placed in 4% paraformaldehyde in PBS for 1 h and then removed in 30% sucrose for cryoprotection overnight. Tracheas were embedded in O.C.T. compound (Sakura Finetek U.S.A., Inc., Torrance, Calif.) and frozen. Frozen sections (5 μm) were cut and placed on glass slides (Superfrost Plus, Fisher Scientific, Pittsburgh, Pa.). Immunostaining was performed similarly to the in vitro studies.

[2] = molecular target: EGFR (Homo sapiens, UniProt P00533); assay: Immunoblotting for activated EGFR in NCI-H292 cells; format: cell-based; set-up: NCI-H292 cells expressed EGSR mRNA constitutively; endogenous in cells; host or cells: NCI-H292 (human pulmonary mucoepidermoid carcinoma); conditions: stimulated 15 minutes
Protocol: Cells were serum-starved for 24 hours and then stimulated with cigarette smoke solution or with TGFα for 15 minutes. After stimulation, cells were lysed with lysis buffer (20 mM sodium phosphate, pH 7.8, 150 mM NaCl, 5 mM EDTA, 50 mM HEPES, 1% Triton-X100, 50 mM NaF, 1 mM sodium orthovanadate, 5 mM PMSF, and 10 μg/ml each of leupeptin and aprotinin) and incubated for 30 minutes at 4° C. To remove insoluble materials, cell lysates were centrifuged at 14,000 rpm for 5 minutes at 4° C. Aliquots of supernatants containing equal amounts of protein were suspended in SDS sample buffer and boiled for 5 minutes. Proteins were separated by SDS-PAGE in 4-15% acrylamide gel. The resulting gel was equilibrated in the transfer buffer: 25 mM Tris-HCl, 192 mM glycine, 20% (vol/vol) methanol, pH 8.3. The proteins were then transferred electrophoretically to nitrocellulose membranes, which were incubated with 5% fat-free skimmed milk in PBS containing 0.05% Tween 20 for 1 hour and then incubated with anti-phospho-specific EGFR mAb (2 μg/ml, Calbiochem) overnight. Bound Ab was visualized according to a standard protocol for the avidin-biotin-alkaline phosphatase complex method (ABC kit, Vector Laboratories, Burlingame, Calif.).

With “TGFα: transforming growth factor alpha, EGF-R ligand (recombinant human; rat synthetic in vivo)” the “Goblet cells in tracheal epithelium” value ([1]; TGFα 250 ng alone or 24 h after TNFα 200 ng, i.t., 48 h later, counted over 2 mm basal lamina, mean ± SEM, 5 rats) was 5.8 ± 1.2, the “% of AB/PAS-stained area” value ([1]; as E9) was 6.8 ± 1.9% and the “Basal cells in tracheal epithelium” value ([1]; as E9) was 56.8 ± 2.3. For the same substance, the “Ciliated cells in tracheal epithelium” value ([1]; as E9) was 54.6 ± 2.3, the “Indeterminate cells in tracheal epithelium” value ([1]; as E9) was 2.0 ± 0.4 and the “Pre-goblet cells in tracheal epithelium” value ([1]; as E9) was 12.8 ± 1.6. For the same substance, the “Secretory cells in tracheal epithelium” value ([1]; as E9) was 72.2 ± 4.0, the “Total cells in tracheal epithelium” value ([1]; as E9) was 204.2 ± 3.3 and the EGFR-specific tyrosine phosphorylation [2] was “increased”.
